# Measurements from patent publication US8263606B2 (Xenon Pharmaceuticals Inc., priority 2008, dated 2012).
# Tests used:
# CYP3A4 = CYP3A4 (Homo sapiens, UniProt P08684); experiment: Cytochrome P450 (CYP450) Inhibition Assay, CYP3A4 (Vivid fluorescence, BOMCC substrate); conditions: human, P450 Baculosomes (recombinant CYP3A4), probe BOMCC (Vivid substrate)
# sodium channel = experiment: Guanidine influx assay (14C-guanidine radiotracer flux, in vitro); assay type: cell-based, human or rat; conditions: guanidine influx assay using a known cell line that expresses a sodium channel
# Outline: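 Radiotracer read-out: intracellular 14C-guanidine counted after washing with guanidine-supplemented low-sodium buffer. Cells expressing human or rat channels get test agent plus aconitine activator and tracer, incubated at ambient temperature. Dilution series centred on 1 μM; IC50 by sigmoidal dose-response fit.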
# CYP3A4, sequence (P08684 whole entry): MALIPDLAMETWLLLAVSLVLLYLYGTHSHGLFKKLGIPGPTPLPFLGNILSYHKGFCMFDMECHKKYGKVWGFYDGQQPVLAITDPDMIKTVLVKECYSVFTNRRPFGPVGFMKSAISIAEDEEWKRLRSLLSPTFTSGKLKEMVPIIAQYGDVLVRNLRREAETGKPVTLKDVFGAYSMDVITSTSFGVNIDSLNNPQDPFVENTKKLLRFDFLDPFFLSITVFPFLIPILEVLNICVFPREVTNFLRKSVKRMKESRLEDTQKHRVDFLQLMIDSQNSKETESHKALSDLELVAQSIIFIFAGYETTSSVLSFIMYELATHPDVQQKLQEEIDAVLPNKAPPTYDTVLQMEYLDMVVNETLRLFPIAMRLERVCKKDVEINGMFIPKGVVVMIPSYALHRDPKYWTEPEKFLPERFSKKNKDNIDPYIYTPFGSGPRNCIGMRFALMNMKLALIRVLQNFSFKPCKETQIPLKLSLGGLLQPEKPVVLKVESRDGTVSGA
Compound,melting point,inhibition at 10 µM (CYP3A4),IC50 (sodium channel; activity level class),IC50 (sodium channel)
"O=C1N(C[C@H]2CCCO2)c2c(Cl)cccc2C12COc1cc3c(cc12)CCO3 (stereo partly drawn) [Example 8.1, 7′-chloro-1′-[(2R)-tetrahydrofuran-2-ylmethyl]-5,6-dihydrospiro[benzo[1,2-b:5,4-b′]difuran-3,3′-indol]-2′(1′H)-one]",192 to 193 °C,< 50%,100 to 1000 nM,
"COCCOCCN1C(=O)C2(COc3cc4c(cc32)OCCO4)c2c(OC)cc(OC)cc21 (stereo not drawn) [Example 9.73, 4′,6′-dimethoxy-1′-[2-(2-methoxyethoxy)ethyl]-2,3-dihydrospiro[furo[2,3-g][1,4]benzodioxine-8,3′-indol]-2′(1′H)-one]",158 to 160 °C,> 50%,,1000 to 10000 nM
"Cc1nc2cc3c(cc2o1)C1(CO3)C(=O)Nc2ccccc21 (stereo not drawn) [Example 3.12, 2-methylspiro[furo[2,3-f][1,3]benzoxazole-7,3′-indol]-2′(1′H)-one]",242 to 244 °C,< 50%,≥ 10000 nM,
"N#Cc1ccc(CN2C(=O)C3(COc4cc5c(cc43)CCO5)c3ccccc32)cc1 (stereo not drawn) [Example 4.23, 4-((2′-oxo-5,6-dihydro-2H-spiro[benzofuro[6,5-b]furan-3,3′-indoline]-1′-yl)methyl)benzonitrile]",69 to 71 °C,< 50%,1 to 100 nM,
"O=C1N(C[C@H]2CCCO2)c2cccc(Cl)c2C12COc1cc3c(cc12)CCO3 (stereo partly drawn) [Example 4.34, 4′-chloro-1′-[(2R)-tetrahydrofuran-2-ylmethyl]-5,6-dihydrospiro[benzo[1,2-b:5,4-b′]difuran-3,3′-indol]-2′(1′H)-one]",78 to 82 °C,< 50%,1 to 100 nM,
"Cc1nc2cc3c(cc2o1)C1(CO3)C(=O)N(C(c2ccccc2)c2ccccc2)c2ccccc21 (stereo not drawn) [Example 2.14, 1′-(diphenylmethyl)-2-methylspiro[furo[2,3-f][1,3]benzoxazole-7,3′-indol]-2′(1′H)-one]",240 to 242 °C,< 50%,≥ 10000 nM,
"CCOC(=O)N1C(=O)C2(COc3cc4c(cc32)OCCO4)c2ccccc21 (stereo not drawn) [Example 18, ethyl 2′-oxo-2,3-dihydrospiro[furo[2,3-g][1,4]benzodioxine-8,3′-indole]-1′(2′H)-carboxylate]",198 to 200 °C,< 50%,,1 to 100 nM
"Cc1cccc(C)c1NC(=O)c1ccc(CN2C(=O)C3(COc4cc5c(cc43)CCO5)c3ccccc32)cc1 (stereo not drawn) [Example 12.35, N-(2,6-dimethylphenyl)-4-[(2′-oxo-5,6-dihydrospiro[benzo[1,2-b:5,4-b′]difuran-3,3′-indol]-1′(2′H)-yl)methyl]benzamide]",> 250 °C,> 50%,,1000 to 10000 nM
"Cc1noc2cc3c(cc12)C1(CO3)C(=O)N(Cc2cnccn2)c2ccccc21 (stereo not drawn) [Example 9.56, 3-methyl-1′-(pyrazin-2-ylmethyl)spiro[furo[3,2-f][1,2]benzisoxazole-5,3′-indol]-2′(1′H)-one]",170 to 173 °C,< 50%,,1 to 100 nM
"O=C1N(Cc2ccc3c(c2)OCCO3)c2ccccc2C12COc1cc3c(cc12)CCO3 (stereo not drawn) [Example 4.26, 1′-(2,3-dihydro-1,4-benzodioxin-6-ylmethyl)-5,6-dihydrospiro[benzo[1,2-b:5,4-b′]difuran-3,3′-indol]-2′(1′H)-one]",173 to 175 °C,< 50%,1 to 100 nM,
"CN1C(=O)C2(C(=O)N(Cc3ccccn3)c3ccccc32)c2cc3c(cc21)OCCO3 (stereo not drawn) [Example 5.19, 6-methyl-1′-(pyridin-2-ylmethyl)-2,3-dihydrospiro[1,4-dioxino[2,3-f]indole-8,3′-indole]-2′,7(1H,6H)-dione]",87 to 89 °C,< 50%,1000 to 10000 nM,
"O=C1Nc2ccccc2C12COc1c2ccc2c1OCCO2 (stereo not drawn) [Example 3.48, 2,3-dihydrospiro[furo[2,3-f][1,4]benzodioxine-7,3′-indol]-2′(1′H)-one]",> 250 °C,< 50%,1000 to 10000 nM,
